The test system of data set [1] is XS106 cells. Briefly: Cytokine content of supernatants by ELISA. It counts as cell-based, mouse.
Data set [2] concerns XS106 cells. The data set can be described thus: FACS analysis of I-A, CD80 and CD86 expression. Format: cell-based, mouse. To be noted: for effect on ATPγS-enhanced CD80 expression: pre-incubated with 300 μM oATP for 2 hours, then GM-CSF/LPS and ATPγS. On the technique in general: A flow cytometer gives signals particle by particle.
The subject of a further data set is CAF1 mice. The data set can be described thus: Tumor vaccine: delayed-type hypersensitivity to tumor-associated antigens (TAA), footpad swelling. To be noted: mouse, in vivo.
The next data set concerns BALB/c mice. Briefly: Contact hypersensitivity (CHS) assay, DNFB, ear swelling. To be noted: mouse, in vivo.
Data set [3] deals with group A streptococcus (GAS). Also noted: species or system Streptococcus pyogenes. To be noted: in vivo.
The subject of another data set is Langerhans cells. Briefly: HDK-1 assay: antigen presentation by Langerhans cells, IFNγ by ELISA. Format: cell-based, BALB/c mice.

Entries after “also recorded” stand apart in the source; their conditions may differ.

Turning to `Nc1ncnc2c1ncn2[C@@H]1O[C@H](COP(=O)(O)OP(=O)(O)OP(=O)(O)O)[C@@H](O)[C@H]1O` [ATP], in the data set with XS 106A cell, the cell viability result is “No effect on viability”. The “secretion of IL-1β” value in the data set on XS106 cells [1] (ATP, significant at 10^−3 M and 10^−4 M, NS at 10^−5 M and 10^−6 M) is reported as “greatly augmented secretion”.

With `Nc1ncnc2c1ncn2[C@@H]1O[C@H](COP(=O)(O)OP(=O)(O)OP(O)(O)=S)[C@@H](O)[C@H]1O` [ATPγS], in the data set with XS106 cells [2], the “expression of CD80” value is listed as “enhanced; also recorded: enhances expression”, the “expression of CD86” value is recorded as “enhanced; also recorded: enhances expression” and the “expression of I-A” value is reported as “enhanced; also recorded: enhances expression”. The “delayed-type hypersensitivity (DTH) response, footpad swelling” value in the data set with CAF1 mice was “significantly enhanced; also recorded: significantly greater DTH response”. In the data set on BALB/c mice, the “ear swelling (contact hypersensitivity response)” value is listed as “significantly augmented; also recorded: greatest ear swelling; also recorded: increased response upon challenge”; the “ear swelling (contact hypersensitivity response), ATPγS injected at a site distant from that of immunization” value is reported as “no effect on the response”; the “ear swelling, ATPγS only (not immunized with DNFB)” value was “least ear swelling”. In data set [3], the “lesion size vs mice immunized with killed GAS alone” value was “much smaller lesions” and the “mean areas of the lesions” value was 2.80±1.11 mm^2. Also, the “concentrations that induce apoptosis” value in the data set with XS106 is “greater than 10^−6 molar”. In the data set with XS106 cells [1], the “release of IL-1β” value is recorded as “significantly increased; also recorded: significant increase”, the “release of IL-10” value is recorded as “decreasing release; also recorded: decrease” and the “release of IL-12” value is “significantly increased; also recorded: significant increase”. Also, in the data set with Langerhans cells, the “IFNγ release by HDK-1 cells (presentation of KLH by LCs)” value was “dose-dependent increase; also recorded: augmented the ability of LCs to present KLH”; the “IFNγ, LCs incubated with ATPγS in the absence of KLH” value is on record as “only background levels; also recorded: did not significantly change the background response”; the “concentration at which the IFNγ response begins to decrease” value is “greater than 10^−6 molar”.

On to `Nc1ncnc2c1ncn2[C@@H](C=O)O[C@@H](C=O)COP(=O)(O)OP(=O)(O)OP(=O)(O)O` [oxidized ATP, reference compound], for which the entries for the “effect on ATPγS-enhanced CD80 expression” value with XS106 cells [2] and in the data set with XS106 cells [2] (listed as oATP) were “inhibits the effect of ATPγS on CD80 expression” and “inhibited”, respectively. Also, the “effect on ATPγS-induced IL-1β secretion” value in the data set on XS106 cells [1] (data not shown) is given as “significantly inhibited”.

The record behind these values is US20050053612A1, “Nucleotide regulation of immune responses” (priority 2003, published 2005).
